Values quoted from earlier work, collected in patent US9120805B2, “Substituted pyrrolo[1,2-A]pyrazin-1-ones and pyrazolo[1,5-A]pyrazin-4-ones as inhibitors of tankyrase and poly(ADP-ribose)polymerase activity” (Merck Patent GmbH, priority 2012, dated 2015).

How the values were obtained:
DLD-1-cancer cells = settings: literature (Huang et al., 2009); cited from earlier work
β-catenin = settings: literature (Huang et al., 2009); by increasing AXIN1 and AXIN2 levels; cited from earlier work

Question: What does the source list for `Oc1nc(-c2ccc(C(F)(F)F)cc2)nc2c1CSCC2` [XAV939]?
Answer: growth of DLD-1-cancer cells (DLD-1-cancer cells): inhibits growth; Wnt-stimulated accumulation of β-catenin (β-catenin): blocked Wnt-stimulated accumulation of β-catenin
